Assays:
[1] = tested on: K. pneumoniae Tim 19 CTX^R mutants; assay: Multi-drug-resistance phenotype of CTX-selected mutants; format: cell-based, Klebsiella pneumoniae; conditions: CTX^R mutants (8 analyzed), MNNG continuous culture, selected with CTX 2-550 μg/ml
[2] = tested on: WT K. pneumoniae Tim 19 (TEM-1 beta-lactamase); format: cell-based, Klebsiella pneumoniae; conditions: for Resistance or sensitivity of clinical isolate: K. pneumoniae strain Tim 19 containing TEM-1 beta-lactamase; for Drug-Resistance Phenotype: WT K. pneumoniae Tim 19, TEM-1
E. coli ATCC 11775 = format: cell-based
[3] = tested on: E. coli 11775 NA^R mutants; assay: Antimicrobial disk-diffusion test (antibiogram) of clones selected on nalidixic acid gradient plates; format: cell-based

How did the “Drug-Resistance Phenotype” value [1] turn out when `CC(C)(O/N=C(\C(=O)N[C@@H]1C(=O)N2C(C(=O)[O-])=C(C[n+]3ccccc3)CS[C@H]12)c1csc(N)n1)C(=O)O` [CAZ, ceftazidime] was run?
The value was “CTX^R, CAZ^R, FOX^R, ATM^R”.

And the “Resistance or sensitivity of clinical isolate” value (shortened to “Resistance or sensitivity”) [2]?
The value was “sensitive”.

And the “Drug-Resistance Phenotype” value [2]?
Its value is “CTX^S, CAZ^S, FOX^S, ATM^S”.

How did the “Drug-Resistance Phenotype” value [1] turn out when `CO/N=C(\C(=O)N[C@@H]1C(=O)N2C(C(=O)O)=C(COC(C)=O)CS[C@H]12)c1csc(N)n1` [CTX, cefotaxime] was run?
Its value is “CTX^R, CAZ^R, FOX^R, ATM^R”.

What about the “Resistance or sensitivity” value [2] of the same compound?
The value was “sensitive”.

And the “Drug-Resistance Phenotype” value [2]?
Its value is “CTX^S, CAZ^S, FOX^S, ATM^S”.

Which “Mutant Frequencies (NA^R phenotype)” value (E. coli ATCC 11775) does the source give for `CCOS(C)(=O)=O` [EMS, Ethyl Methanesulfonate] here?
Its value is 1.2 × 10^−7.

What about the “Survival (%)” value (E. coli ATCC 11775) of the same compound?
The value was 64%.

For `CC1(C)S[C@@H]2[C@H](NC(=O)[C@H](N)c3ccccc3)C(=O)N2[C@H]1C(=O)O` [ampicillin], which “Resistance or sensitivity” value [2] is on record?
Its value is “resistance”.

Which results are given for `O=[N+]([O-])c1cc[n+]([O-])c2ccccc12` [NQO, 4Nitroquinoline-lxide]?
Mutant Frequencies (NA^R phenotype) (E. coli ATCC 11775): 0.6 × 10^−8; Survival (%) (E. coli ATCC 11775): 77%

What does the source list for `CCn1cc(C(=O)O)c(=O)c2ccc(C)nc21` [NA, nalidixic acid]?
Phenotype (nalidixic acid resistance) ([3]; mutant D2C2-a, EMS continuous culture, 82 generations, Gly-81→Cys): Partially NA^R; Phenotype (nalidixic acid resistance) ([3]; mutant D2C2-h, EMS continuous culture, 62 generations, Gly-81→Cys): Partially NA^R; Phenotype (nalidixic acid resistance) ([3]; mutant D2C2-l, EMS continuous culture, 62 generations, Gly-82 (GAC)→Asn): Partially NA^R; Phenotype (nalidixic acid resistance) ([3]; mutant D3NX-E5, EMS continuous culture, 135 generations, Ser-83→Leu): Completely NA^R; Phenotype (nalidixic acid resistance) ([3]; mutant D3NX-E6, EMS continuous culture, 135 generations, Ser-83→Leu): Completely NA^R; Phenotype (nalidixic acid resistance) ([3]; mutant D7NX-E1, EMS continuous culture, 403 generations, Ser-83→Leu): Completely NA^R; Phenotype (nalidixic acid resistance) ([3]; mutant D7NX-E2, EMS continuous culture, 403 generations, Ser-83→Leu): Completely NA^R; Phenotype (nalidixic acid resistance) ([3]; mutant NX-E09, EMS, batch culture, gyrA Asp-87→Ile): Partially NA^R; Phenotype (nalidixic acid resistance) ([3]; mutant NX-E10, EMS, batch culture, gyrA Ser-83→Leu): Completely NA^R; Phenotype (nalidixic acid resistance) ([3]; mutant NX-M3, MNNG, batch culture, gyrA Asp-87→Gly): Partially NA^R; Phenotype (nalidixic acid resistance) ([3]; mutant NX-M5, MNNG, batch culture, gyrA Asp-87→Asn): Partially NA^R; Phenotype (nalidixic acid resistance) ([3]; mutant NX-M6, MNNG, batch culture, gyrA Asp-87→Gly): Partially NA^R; Phenotype (nalidixic acid resistance) ([3]; mutant NX-N6, NQO, batch culture, gyrA Ser-83→Leu): Completely NA^R

With `CO[C@@]1(NC(=O)Cc2cccs2)C(=O)N2C(C(=O)O)=C(COC(N)=O)CS[C@@H]21` [FOX, cefoxitin] as the compound, how does the “Drug-Resistance Phenotype” value [1] read?
The value was “CTX^R, CAZ^R, FOX^R, ATM^R”.

What about the “Resistance or sensitivity” value [2] of the same compound?
Its value is “sensitive”.

What about the “Drug-Resistance Phenotype” value [2] of the same compound?
Its value is “CTX^S, CAZ^S, FOX^S, ATM^S”.

Which results are given for `C[C@H]1[C@H](NC(=O)/C(=N\OC(C)(C)C(=O)O)c2csc(N)n2)C(=O)N1S(=O)(=O)O` [ATM, aztreonum]?
Drug-Resistance Phenotype [1]: CTX^R, CAZ^R, FOX^R, ATM^R; Drug-Resistance Phenotype [2]: CTX^S, CAZ^S, FOX^S, ATM^S

From patent US6875582B1 (priority 1999, dated 2005)
